From BindingDB's records for doi:10.1074/jbc.M003490200 (University of Virginia, 2000)

Biological target: T1, Leukotriene B4 receptor 2 (Homo sapiens, UniProt Q9NPC1)
T1 sequence (Q9NPC1 whole entry): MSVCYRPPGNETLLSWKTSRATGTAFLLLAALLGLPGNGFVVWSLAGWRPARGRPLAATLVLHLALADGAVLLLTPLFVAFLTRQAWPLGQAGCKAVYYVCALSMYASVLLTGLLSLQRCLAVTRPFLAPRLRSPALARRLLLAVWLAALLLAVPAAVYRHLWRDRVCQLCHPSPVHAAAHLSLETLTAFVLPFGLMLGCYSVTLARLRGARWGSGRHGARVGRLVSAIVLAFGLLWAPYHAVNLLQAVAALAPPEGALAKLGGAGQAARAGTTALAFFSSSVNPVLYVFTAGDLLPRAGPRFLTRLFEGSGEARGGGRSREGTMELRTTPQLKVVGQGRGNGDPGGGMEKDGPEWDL

Going from `CCCCC/C=C\C\C=C/C=C/C=C/[C@@H](SC[C@H](N)C(=O)NCC(=O)O)[C@@H](O)CCCC(=O)O` [5S-hydroxy-6R-(S-cysteinylglycinyl)-7E,9E,11E,14Z-eicosatetraenoic acid] to `CCCCC/C=C\C\C=C/C=C/C=C/[C@@H](SC[C@H](N)C(=O)O)[C@@H](O)CCCC(=O)O` [(5S-(5R*,6S*(S*),7E,9E,11Z,14Z))-6-((2-Amino-2-carboxyethyl)thio)-5-hydroxy-7,9,11,14-eicosatetraenoic acid], the Ki rises from 3.48 nM to 693 nM (200-fold). The first binds more tightly here.

Compared with `O=C(Nc1ccc2c(=O)cc(-c3nnn[nH]3)oc2c1)c1ccc(OCCCCc2ccccc2)cc1` [CAS_103177-37-3], `COc1cc(C(=O)NS(=O)(=O)c2ccccc2C)ccc1Cc1cn(C)c2ccc(NC(=O)OC3CCCC3)cc12` [cyclopentyl 3-(2-methoxy-4-((o-tolylsulfonyl)carbamoyl)benzyl)-1-methylindole-5-carbamate] is 2-fold higher in Ki: 3620 nM for the first, 7400 nM for the second. The first binds more tightly here.

Compared with `CCCCCC=CCC=CC=CC=CC(SCC(NC(=O)CCC(N)C(=O)O)C(=O)NCC(=O)O)C(O)CCCC(=O)O` (stereo unspecified) [CAS_5283121], `CC(C)(O)c1ccccc1CCC(S)c1cccc(C=Cc2ccc3ccc(Cl)cc3n2)c1` (stereo unspecified) [NSC_5311297] is higher in Ki: 3.35 nM for the first, greater than 10000 nM for the second. The first binds more tightly here.
